Measured values: ChEMBL document CHEMBL3727346, “6-(pyridinyl)-4-pyrimidone derivates as tau protein kinase 1 inhibitors” (2011)
Activity calls are given as the source filed them. The rule behind the calls is not given here.

Target: Glycogen synthase kinase-3 beta splice variant X1 (Bos taurus) (UniProt A0A059UE90)
Experiment: Inhibition of bovine cerebral TPK1 assessed as reduction in P-GS1 phosphorylation using [32gammaP]ATP incubated for 2 hrs by liquid scintillation counting method

inhibition, active:
Cn1c(N2CCO[C@@H](c3ccc(N4CCCNC4=O)cc3)C2)nc(-c2ccncc2F)cc1=O, Cn1c(N2CCO[C@@H](c3ccc(F)cc3)C2)nc(-c2ccncc2F)c(F)c1=O, CN1CCN(CC(=O)Nc2ccc([C@H]3CN(c4nc(-c5ccncc5F)cc(=O)n4C)CCO3)cc2)CC1, Cn1c(N2CCO[C@@H](c3ccc(N4CCc5ccccc54)cc3)C2)nc(-c2ccncc2F)cc1=O, Cn1c(N2CCO[C@@H](c3ccc(OCCCN4CCCCC4)cc3)C2)nc(-c2ccncc2F)cc1=O, CCN(CC)c1ccc([C@H]2CN(c3nc(-c4ccncc4F)cc(=O)n3C)CCO2)cc1, Cn1c(N2CCO[C@@H](c3ccc(C(C)(C)O)cc3)C2)nc(-c2ccncc2F)cc1=O, Cn1c(N2CCN[C@H](c3ccc(C#N)cc3)C2)nc(-c2ccncc2F)cc1=O, Cn1c(N2CCO[C@@H](c3ccc(OC[C@@H](O)CN4CCCC4)cc3)C2)nc(-c2ccncc2F)cc1=O, CN(c1ccc([C@H]2CN(c3nc(-c4ccncc4F)cc(=O)n3C)CCO2)cc1)C1CCCC1, CCOc1ccc(-c2ccc([C@H]3CN(c4nc(-c5ccncc5F)cc(=O)n4C)CCN3)cc2)cc1, Cn1c(N2CCN[C@@H](c3ccc(-c4ccc(Cl)cc4)cc3)C2)nc(-c2ccncc2F)cc1=O, C[C@@H]1CN(c2ccc([C@H]3CN(c4nc(-c5ccncc5F)cc(=O)n4C)CCN3)cc2)C[C@H](C)O1, COc1ccc(-c2ccc([C@H]3CN(c4nc(-c5ccncc5F)cc(=O)n4C)CCN3)cc2)c(OC)c1, CSc1ccc(-c2ccc([C@H]3CN(c4nc(-c5ccncc5F)cc(=O)n4C)CCN3)cc2)cc1, COc1ccc(-c2ccc([C@H]3CN(c4nc(-c5ccncc5F)cc(=O)n4C)CCN3)cc2)cc1OC, CN(c1ccc([C@H]2CN(c3nc(-c4ccncc4F)cc(=O)n3C)CCO2)cc1)C1CCOCC1, Cn1c(N2CCO[C@@H](c3ccc(OC4CCCC4)cc3)C2)nc(-c2ccncc2F)cc1=O, Cn1c(N2CCO[C@@H](c3ccc(NC(=O)CN4CCCC4)cc3)C2)nc(-c2ccncc2F)cc1=O, Cn1c(N2CCO[C@@H](c3ccc(N4CCOCC4)cc3)C2)nc(-c2ccncc2F)cc1=O, Cc1nnc(-c2ccc([C@H]3CN(c4nc(-c5ccncc5F)cc(=O)n4C)CCO3)cc2)o1, Cn1c(N2CCN[C@@H](c3ccc(-c4ccc(N)cc4)cc3)C2)nc(-c2ccncc2F)cc1=O, Cn1c(N2CCN[C@@H](c3ccc(N4CC[C@H](C(N)=O)C4)cc3)C2)nc(-c2ccncc2F)cc1=O, Cn1c(N2CCO[C@@H](c3ccc(N4CCC4)cc3)C2)nc(-c2ccncc2F)cc1=O, CN(C)CCOc1ccc([C@H]2CN(c3nc(-c4ccncc4F)cc(=O)n3C)CCO2)cc1, Cn1c(N2CCOC(c3ccc4c(c3)NC(=O)CO4)C2)nc(-c2ccncc2F)cc1=O (racemic), Cn1c(N2CCO[C@@H](c3ccc(N4CCC[C@H]5CCCC[C@@H]54)cc3)C2)nc(-c2ccncc2F)cc1=O, Cn1c(N2CCOC(c3ccccc3OCCCN)C2)nc(-c2ccncc2F)cc1=O (stereo unspecified), COc1cc(Cl)ccc1[C@H]1CN(c2nc(-c3ccncc3F)cc(=O)n2C)CCO1, Cn1c(N2CCO[C@@H](c3ccc(N4CCCCC4=O)cc3)C2)nc(-c2ccncc2F)cc1=O, C[C@@H]1CN(c2ccc([C@H]3CN(c4nc(-c5ccncc5F)cc(=O)n4C)CCO3)cc2)C[C@H](C)N1, Cn1c(N2CCN[C@@H](c3ccc(-c4ccc(OC(F)(F)F)cc4)cc3)C2)nc(-c2ccncc2F)cc1=O, Cn1c(N2CCO[C@@H](c3ccc(N4CCOC4=O)cc3)C2)nc(-c2ccncc2F)cc1=O, Cn1c(N2CCO[C@@H](c3ccc(OCCN4CCNCC4)cc3)C2)nc(-c2ccncc2F)cc1=O, Cn1c(N2CCO[C@@H](c3ccc(N4CC[C@H](N5CCCCC5)C4)cc3)C2)nc(-c2ccncc2F)cc1=O, CNc1ccc([C@H]2CN(c3nc(-c4ccncc4F)cc(=O)n3C)CCO2)cc1, Cn1c(N2CCN[C@@H](c3ccc(-c4ccc(C(C)(C)C)cc4)cc3)C2)nc(-c2ccncc2F)cc1=O, CC(C)N1CCN(c2ccc([C@H]3CN(c4nc(-c5ccncc5F)cc(=O)n4C)CCO3)cc2)CC1, Cn1c(N2CCO[C@@H](c3cccc(N)c3)C2)nc(-c2ccncc2F)cc1=O, Cn1c(N2CCO[C@@H](c3ccc(N(c4ccccn4)c4ccccn4)cc3)C2)nc(-c2ccncc2F)cc1=O, C[C@@H]1CN(c2ccc([C@H]3CN(c4nc(-c5ccncc5F)cc(=O)n4C)CCN3)cc2)C[C@H](C)N1, CN1CCC(Oc2ccc([C@H]3CN(c4nc(-c5ccncc5F)cc(=O)n4C)CCO3)cc2)CC1, Cn1c(N2CCN[C@@H](c3ccc(-c4ccc(OCC5CC5)cc4)cc3)C2)nc(-c2ccncc2F)cc1=O, CC(=O)N(C)c1ccc([C@H]2CN(c3nc(-c4ccncc4F)cc(=O)n3C)CCO2)cc1, Cn1c(N2CCO[C@@H](c3ccc(OCC4CC4)cc3)C2)nc(-c2ccncc2F)cc1=O, CN(C)[C@H]1CCN(c2ccc([C@H]3CN(c4nc(-c5ccncc5F)cc(=O)n4C)CCO3)cc2)C1, Cc1cc(N2CCN(c3ccc(C4CN(c5nc(-c6ccncc6F)cc(=O)n5C)CCO4)cc3)CC2)n(-c2ccccc2)n1 (stereo unspecified), Cn1c(N2CCO[C@@H](c3ccc(CO)cc3)C2)nc(-c2ccncc2F)cc1=O, Cn1c(N2CCO[C@@H](c3ccc(NC(=O)CN4CCCCC4)cc3)C2)nc(-c2ccncc2F)cc1=O, Cn1c(N2CCO[C@@H](c3ccc(C(=O)N4CCCCC4)cc3)C2)nc(-c2ccncc2F)cc1=O, CCN(CC)CCCOc1ccc([C@H]2CN(c3nc(-c4ccncc4F)cc(=O)n3C)CCO2)cc1, Cn1c(N2CCNC(c3ccc(-c4ncon4)cc3)C2)nc(-c2ccncc2F)cc1=O (stereo unspecified), Cn1c(N2CCO[C@@H](c3ccc(N4CCC(N5CCCCC5)CC4)cc3)C2)nc(-c2ccncc2F)cc1=O, Cn1c(N2CCO[C@@H](c3ccc(N4CC[C@@H](N5CCCC5)C4)cc3)C2)nc(-c2ccncc2F)cc1=O, Cn1c(N2CCN[C@@H](c3ccc(N4CC[C@@H](O)C4)cc3)C2)nc(-c2ccncc2F)cc1=O, CC1CC1C(=O)Nc1ccc([C@H]2CN(c3nc(-c4ccncc4F)cc(=O)n3C)CCO2)cc1 (stereo partly specified), Cn1c(N2CCO[C@@H](c3ccc(F)c(N)c3)C2)nc(-c2ccncc2F)cc1=O, Cn1c(N2CCO[C@@H](c3ccc(OCCN4CCCC4)cc3)C2)nc(-c2ccncc2F)cc1=O, CN(c1ccc([C@H]2CN(c3nc(-c4ccncc4F)cc(=O)n3C)CCO2)cc1)C1C2CC3CC(C2)CC1C3 (stereo partly specified), Cc1nc(-c2ccc(C3CN(c4nc(-c5ccncc5F)cc(=O)n4C)CCN3)cc2)no1 (stereo unspecified), Cn1c(N2CCO[C@@H](c3ccc(N4CCC(O)CC4)cc3)C2)nc(-c2ccncc2F)cc1=O, COc1ccc(C#N)cc1[C@H]1CN(c2nc(-c3ccncc3F)c(F)c(=O)n2C)CCO1, Cn1c(N2CCO[C@@H](c3ccc(NC(=O)C4CC4)cc3)C2)nc(-c2ccncc2F)cc1=O, COc1ccc(C#N)cc1[C@H]1CN(c2nc(-c3ccncc3F)cc(=O)n2C)CCO1, Cn1c(N2CCO[C@@H](c3ccc(N4CC[C@@H](N5CCCCC5)C4)cc3)C2)nc(-c2ccncc2F)cc1=O, Cn1c(N2CCO[C@@H](c3ccc(N4CCCC4)cc3)C2)nc(-c2ccncc2F)cc1=O, Cn1c(N2CCO[C@@H](c3ccc(NC45CC6CC(CC(C6)C4)C5)cc3)C2)nc(-c2ccncc2F)cc1=O, Cn1c(N2CCO[C@@H](c3ccc(NC(=S)Nc4cccnc4)cc3)C2)nc(-c2ccncc2F)cc1=O, CC(O)c1ccc([C@H]2CN(c3nc(-c4ccncc4F)cc(=O)n3C)CCO2)cc1 (stereo partly specified), CN(C)[C@H]1CCN(c2ccc([C@H]3CN(c4nc(-c5ccncc5F)cc(=O)n4C)CCN3)cc2)C1, CCN(CC)Cc1ccc([C@H]2CN(c3nc(-c4ccncc4F)cc(=O)n3C)CCO2)cc1, Cn1c(N2CCO[C@@H](c3ccc(NC4C5CC6CC(C5)CC4C6)cc3)C2)nc(-c2ccncc2F)cc1=O (stereo partly specified), Cn1c(N2CCO[C@@H](c3ccc(CN4CCOCC4)cc3)C2)nc(-c2ccncc2F)cc1=O, CN(C)C1CCN(c2ccc([C@H]3CN(c4nc(-c5ccncc5F)cc(=O)n4C)CCN3)cc2)CC1, CN(c1ccc([C@H]2CN(c3nc(-c4ccncc4F)cc(=O)n3C)CCO2)cc1)C1CCCCC1, Cn1c(N2CCO[C@@H](c3ccc(NC4CCCCC4)cc3)C2)nc(-c2ccncc2F)cc1=O, Cn1c(N2CCNC(c3ccc(N4CCN(C(=O)OCc5ccccc5)CC4)cc3)C2)nc(-c2ccncc2F)cc1=O (stereo unspecified), CN(C)c1cccc2c(S(=O)(=O)Nc3ccc([C@H]4CN(c5nc(-c6ccncc6F)cc(=O)n5C)CCO4)cc3)cccc12, Cn1c(N2CCO[C@@H](c3ccc(NS(=O)(=O)Cc4ccccc4)cc3)C2)nc(-c2ccncc2F)cc1=O, Cn1c(N2CCN[C@@H](c3ccc(N4CCC(O)CC4)cc3)C2)nc(-c2ccncc2F)cc1=O, CNC(=S)Nc1ccc([C@H]2CN(c3nc(-c4ccncc4F)cc(=O)n3C)CCO2)cc1
